Experimental data from the NIST ThermoML archive (doi:10.1016/j.jct.2017.08.004).

Experiment: molar heat capacity at constant pressure
Conditions: 101.33 kPa, Small sample (50 mg) DSC

O[C@H]1[C@H](O)[C@@H](O)[C@H](O)[C@@H](O)[C@H]1O [cis-1,2,3,5-trans-4,6-cyclohexanehexol]
Conditions | molar heat capacity at constant pressure [J/K/mol]
315.15 K, Crystal | 232.92
316.15 K, Crystal | 233.85
317.15 K, Crystal | 235
318.15 K, Crystal | 235.92
319.15 K, Crystal | 236.78
320 K, Crystal | 237.36
320.15 K, Crystal | 237.59
321.15 K, Crystal | 238.68
322.15 K, Crystal | 239.43
323.15 K, Crystal | 240.32
324.15 K, Crystal | 241.22
325 K, Crystal | 241.8
325.15 K, Crystal | 242.06
326.15 K, Crystal | 242.94
327.15 K, Crystal | 243.8
328.15 K, Crystal | 244.59
329.15 K, Crystal | 245.47
330 K, Crystal | 246.17
330.15 K, Crystal | 246.24
331.15 K, Crystal | 247.08
332.15 K, Crystal | 247.89
333.15 K, Crystal | 248.82
334.15 K, Crystal | 249.61
335 K, Crystal | 250.49
335.15 K, Crystal | 250.35
336.15 K, Crystal | 251.33
337.15 K, Crystal | 251.96
338.15 K, Crystal | 252.7
339.15 K, Crystal | 253.75
340 K, Crystal | 254.75
340.15 K, Crystal | 254.49
341.15 K, Crystal | 255.37
342.15 K, Crystal | 256.24
343.15 K, Crystal | 257.08
344.15 K, Crystal | 258
345 K, Crystal | 258.97
345.15 K, Crystal | 258.77
346.15 K, Crystal | 259.66
347.15 K, Crystal | 260.52
348.15 K, Crystal | 261.32
349.15 K, Crystal | 262.12
350 K, Crystal | 263.15
350.15 K, Crystal | 262.98
351.15 K, Crystal | 263.82
352.15 K, Crystal | 264.56
353.15 K, Crystal | 265.46
354.15 K, Crystal | 266.43
355 K, Crystal | 267.28
355.15 K, Crystal | 268.62
356.15 K, Crystal | 269.08
357.15 K, Crystal | 269.64
358.15 K, Crystal | 270.31
359.15 K, Crystal | 271.05
360 K, Crystal | 271.38
360.15 K, Crystal | 271.91
361.15 K, Crystal | 272.57
362.15 K, Crystal | 273.45
363.15 K, Crystal | 274.41
364.15 K, Crystal | 275.15
365 K, Crystal | 275.43
365.15 K, Crystal | 275.9
366.15 K, Crystal | 276.72
367.15 K, Crystal | 277.6
368.15 K, Crystal | 278.26
369.15 K, Crystal | 279.12
370 K, Crystal | 279.44
370.15 K, Crystal | 280
371.15 K, Crystal | 280.66
372.15 K, Crystal | 281.41
373.15 K, Crystal | 282.03
374.15 K, Crystal | 282.8
375 K, Crystal | 283.41
375.15 K, Crystal | 283.66
376.15 K, Crystal | 284.41
377.15 K, Crystal | 285.16
378.15 K, Crystal | 286.02
379.15 K, Crystal | 286.77
380 K, Crystal | 287.33
380.15 K, Crystal | 287.5
381.15 K, Crystal | 288.2
382.15 K, Crystal | 289.07
383.15 K, Crystal | 289.93
384.15 K, Crystal | 290.58
385 K, Crystal | 291.21
385.15 K, Crystal | 291.5
386.15 K, Crystal | 292.25
387.15 K, Crystal | 292.92
388.15 K, Crystal | 293.5
389.15 K, Crystal | 294.35
390 K, Crystal | 295.04
390.15 K, Crystal | 295.24
391.15 K, Crystal | 295.7
392.15 K, Crystal | 296.49
393.15 K, Crystal | 297.22
394.15 K, Crystal | 297.96
395 K, Crystal | 298.83
395.15 K, Crystal | 298.67
396.15 K, Crystal | 299.31
397.15 K, Crystal | 300.06
398.15 K, Crystal | 300.77
399.15 K, Crystal | 301.51
400 K, Crystal | 302.58
400.15 K, Crystal | 302.31
401.15 K, Crystal | 303.15
402.15 K, Crystal | 303.73
403.15 K, Crystal | 304.44
404.15 K, Crystal | 305.17
405 K, Crystal | 306.28
405.15 K, Crystal | 306.03
406.15 K, Crystal | 306.79
407.15 K, Crystal | 307.48
408.15 K, Crystal | 308.4
409.15 K, Crystal | 309.1
410 K, Crystal | 309.94
410.15 K, Crystal | 309.8
411.15 K, Crystal | 310.58
412.15 K, Crystal | 311.34
413.15 K, Crystal | 311.98
414.15 K, Crystal | 312.89
415 K, Crystal | 313.58
415.15 K, Crystal | 313.72
416.15 K, Crystal | 314.29
417.15 K, Crystal | 315.14
418.15 K, Crystal | 315.93
419.15 K, Crystal | 316.51
420 K, Crystal | 317.18
420.15 K, Crystal | 317.13
421.15 K, Crystal | 317.97
422.15 K, Crystal | 318.68
423.15 K, Crystal | 319.32
424.15 K, Crystal | 320.07
425 K, Crystal | 320.78
425.15 K, Crystal | 320.77
426.15 K, Crystal | 321.54
427.15 K, Crystal | 322.27
428.15 K, Crystal | 322.94
429.15 K, Crystal | 323.6
430 K, Crystal | 324.37
430.15 K, Crystal | 324.79
431.15 K, Crystal | 325.38
432.15 K, Crystal | 325.96
433.15 K, Crystal | 326.58
434.15 K, Crystal | 327.17
435 K, Crystal | 327.98
435.15 K, Crystal | 328.13
436.15 K, Crystal | 328.94
437.15 K, Crystal | 329.55
438.15 K, Crystal | 330.45
439.15 K, Crystal | 331.25
440 K, Crystal | 331.62
440.15 K, Crystal | 332.08
441.15 K, Crystal | 332.75
442.15 K, Crystal | 333.52
443.15 K, Crystal | 334.28
444.15 K, Crystal | 334.91
445 K, Crystal | 335.31
445.15 K, Crystal | 335.69
446.15 K, Crystal | 336.45
447.15 K, Crystal | 337.11
448.15 K, Crystal | 337.97
449.15 K, Crystal | 338.86
450 K, Crystal | 339.09
450.15 K, Crystal | 339.61
451.15 K, Crystal | 340.28
452.15 K, Crystal | 340.91
453.15 K, Crystal | 341.76
454.15 K, Crystal | 342.6
455 K, Crystal | 342.97
455.15 K, Crystal | 343.62
456.15 K, Crystal | 344.29
457.15 K, Crystal | 345.24
458.15 K, Crystal | 346.14
459.15 K, Crystal | 346.94
460 K, Crystal | 346.99
460.15 K, Crystal | 347.73
461.15 K, Crystal | 348.37
462.15 K, Crystal | 349.07
463.15 K, Crystal | 349.91
464.15 K, Crystal | 350.64
465 K, Crystal | 351.2
465.15 K, Crystal | 351.55
466.15 K, Crystal | 352.42
467.15 K, Crystal | 353.08
468.15 K, Crystal | 353.97
469.15 K, Crystal | 354.86
470 K, Crystal | 355.62
470.15 K, Crystal | 355.7
471.15 K, Crystal | 356.6
472.15 K, Crystal | 357.44
473.15 K, Crystal | 358.19
474.15 K, Crystal | 359.01
475 K, Crystal | 360.31
475.15 K, Crystal | 359.91
476.15 K, Crystal | 360.87
477.15 K, Crystal | 361.75
478.15 K, Crystal | 362.53
479.15 K, Crystal | 363.44
480 K, Crystal | 365.32
480.15 K, Crystal | 364.51
481.15 K, Crystal | 365.73
482.15 K, Crystal | 366.73
485 K, Crystal | 370.71
513.05 K, Liquid | 508.49
513.15 K, Liquid | 508.52
514.15 K, Liquid | 508.4
515 K, Liquid | 506.99
515.15 K, Liquid | 507.66
516.15 K, Liquid | 505.87
517.15 K, Liquid | 506.07
518.15 K, Liquid | 506.35
519.15 K, Liquid | 506.73
520 K, Liquid | 507.22
520.15 K, Liquid | 506.91
521.15 K, Liquid | 507.17
522.15 K, Liquid | 507.28
523.15 K, Liquid | 507.22
524.15 K, Liquid | 507.46
525 K, Liquid | 507.46
525.15 K, Liquid | 506.85
526.15 K, Liquid | 507.2
527.15 K, Liquid | 506.47
528.15 K, Liquid | 505.89
529.15 K, Liquid | 506.19
530 K, Liquid | 507.69
530.15 K, Liquid | 507.15
531.15 K, Liquid | 507.89
532.15 K, Liquid | 508.08
533.15 K, Liquid | 508.54
534.15 K, Liquid | 508.66
535 K, Liquid | 507.93
535.15 K, Liquid | 508.27
536.15 K, Liquid | 508.3
537.15 K, Liquid | 508.67
538.15 K, Liquid | 508.45
539.15 K, Liquid | 508.21
540 K, Liquid | 508.16
540.15 K, Liquid | 508.39
541.15 K, Liquid | 508.54
542.15 K, Liquid | 508.33
543.15 K, Liquid | 508.45
